Measured values taken from PubChem BioAssay (NCI).
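Values below derive from 48-hour exposures of cells grown in 96-well plates, with endpoints linearly interpolated between the two concentrations bracketing the appropriate inhibition level. GI50 marks 50% less growth. The concentration for full growth arrest is given as TGI.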

What was measured:
Assay in all cases: inhibition of tumour cell growth, NCI panel, 48 h
SK-MEL-2 melanoma = test system: SK-MEL-2 melanoma
SN12C renal = test system: SN12C renal
MCF7 breast = test system: MCF7 breast
KM12 colon = test system: KM12 colon
OVCAR-5 ovarian = test system: OVCAR-5 ovarian
SK-OV-3 ovarian = test system: SK-OV-3 ovarian
IGROV1 ovarian = test system: IGROV1 ovarian
MDA-MB-231 breast = test system: MDA-MB-231 breast
K-562 leukemia = test system: K-562 leukemia
HCT-15 colon = test system: HCT-15 colon
LOX IMVI melanoma = test system: LOX IMVI melanoma
HOP-62 NSCLC = test system: HOP-62 NSCLC
TK-10 renal = test system: TK-10 renal
DU-145 prostate = test system: DU-145 prostate
NCI-H226 lung = test system: NCI-H226 lung
A498 renal = test system: A498 renal
HOP-92 NSCLC = test system: HOP-92 NSCLC
UACC-62 melanoma = test system: UACC-62 melanoma
SK-MEL-5 melanoma = test system: SK-MEL-5 melanoma
OVCAR-4 ovarian = test system: OVCAR-4 ovarian
HCC-2998 colon = test system: HCC-2998 colon
786-0 renal = test system: 786-0 renal
RPMI-8226 leukemia = test system: RPMI-8226 leukemia
HL-60(TB) leukemia = test system: HL-60(TB) leukemia
SF-295 CNS = test system: SF-295 CNS
OVCAR-8 ovarian = test system: OVCAR-8 ovarian
MALME-3M melanoma = test system: MALME-3M melanoma
HS 578T breast = test system: HS 578T breast
MDA-MB-468 breast = test system: MDA-MB-468 breast
CAKI-1 renal = test system: CAKI-1 renal
MOLT-4 leukemia = test system: MOLT-4 leukemia
BT-549 breast = test system: BT-549 breast
T-47D breast = test system: T-47D breast
SR leukemia = test system: SR leukemia
ACHN renal = test system: ACHN renal
SK-MEL-28 melanoma = test system: SK-MEL-28 melanoma
RXF 393 renal = test system: RXF 393 renal
NCI-H522 lung = test system: NCI-H522 lung
PC-3 prostate = test system: PC-3 prostate
SF-539 CNS = test system: SF-539 CNS
NCI-H23 lung = test system: NCI-H23 lung
U251 CNS = test system: U251 CNS
NCI-H460 lung = test system: NCI-H460 lung
UACC-257 melanoma = test system: UACC-257 melanoma
COLO 205 colon = test system: COLO 205 colon
EKVX NSCLC = test system: EKVX NSCLC
SNB-19 CNS = test system: SNB-19 CNS
SF-268 CNS = test system: SF-268 CNS
NCI/ADR-RES ovarian = test system: NCI/ADR-RES ovarian
A549 NSCLC = test system: A549 NSCLC
HT29 colon = test system: HT29 colon
MDA-MB-435 = test system: MDA-MB-435
OVCAR-3 ovarian = test system: OVCAR-3 ovarian
UO-31 renal = test system: UO-31 renal
SW-620 colon = test system: SW-620 colon
M14 melanoma = test system: M14 melanoma
CCRF-CEM leukemia = test system: CCRF-CEM leukemia
SNB-75 CNS = test system: SNB-75 CNS

Compound: CCNCCCn1c2c(c3cc(OC)c(OC)cc3c1=O)C(=O)c1cc3c(nc1-2)OCO3
- GI50 (SK-MEL-2 melanoma): > 100 µM
- TGI (SK-MEL-2 melanoma): > 100 µM
- GI50 (SN12C renal): 4.61 µM
- TGI (SN12C renal): 17.4 µM
- GI50 (MCF7 breast): 0.0754 µM
- TGI (MCF7 breast): 10.3 µM
- GI50 (KM12 colon): 10.4 µM
- TGI (KM12 colon): 23.8 µM
- GI50 (OVCAR-5 ovarian): 3.69 µM
- TGI (OVCAR-5 ovarian): 16.5 µM
- GI50 (SK-OV-3 ovarian): 1.14 µM
- TGI (SK-OV-3 ovarian): 11.8 µM
- GI50 (IGROV1 ovarian): 12.1 µM
- TGI (IGROV1 ovarian): 25.7 µM
- GI50 (MDA-MB-231 breast): 1.91 µM
- TGI (MDA-MB-231 breast): 6.14 µM
- GI50 (K-562 leukemia): 0.483 µM
- TGI (K-562 leukemia): 2.75 µM
- GI50 (HCT-15 colon): 1.14 µM
- TGI (HCT-15 colon): 2.54 µM
- GI50 (LOX IMVI melanoma): 0.487 µM
- TGI (LOX IMVI melanoma): 1.9 µM
- GI50 (HOP-62 NSCLC): 0.205 µM
- TGI (HOP-62 NSCLC): 10.2 µM
- GI50 (TK-10 renal): 17.6 µM
- TGI (TK-10 renal): 33.3 µM
- GI50 (DU-145 prostate): 0.548 µM
- TGI (DU-145 prostate): 12.5 µM
- GI50 (NCI-H226 lung): 1.27 µM
- TGI (NCI-H226 lung): 3.2 µM
- GI50 (A498 renal): 9.07 µM
- TGI (A498 renal): 23 µM
- GI50 (HOP-92 NSCLC): 7.73 µM
- TGI (HOP-92 NSCLC): 23.1 µM
- GI50 (UACC-62 melanoma): 1.81 µM
- TGI (UACC-62 melanoma): 15.4 µM
- GI50 (SK-MEL-5 melanoma): 0.921 µM
- TGI (SK-MEL-5 melanoma): 2.14 µM
- GI50 (OVCAR-4 ovarian): 14.2 µM
- TGI (OVCAR-4 ovarian): 31.9 µM
- GI50 (HCC-2998 colon): 4.07 µM
- TGI (HCC-2998 colon): 18.9 µM
- GI50 (786-0 renal): 1.39 µM
- TGI (786-0 renal): 2.84 µM
- GI50 (RPMI-8226 leukemia): 0.641 µM
- TGI (RPMI-8226 leukemia): 2.97 µM
- GI50 (HL-60(TB) leukemia): 1.63 µM
- TGI (HL-60(TB) leukemia): 7.5 µM
- GI50 (SF-295 CNS): 0.23 µM
- TGI (SF-295 CNS): 12.7 µM
- GI50 (OVCAR-8 ovarian): 1.82 µM
- TGI (OVCAR-8 ovarian): 12 µM
- GI50 (MALME-3M melanoma): 1.35 µM
- TGI (MALME-3M melanoma): 2.76 µM
- GI50 (HS 578T breast): 10.4 µM
- TGI (HS 578T breast): 29.8 µM
- GI50 (MDA-MB-468 breast): 0.431 µM
- TGI (MDA-MB-468 breast): 2.51 µM
- GI50 (CAKI-1 renal): 0.946 µM
- TGI (CAKI-1 renal): 16.6 µM
- GI50 (MOLT-4 leukemia): 0.048 µM
- TGI (MOLT-4 leukemia): 2.13 µM
- GI50 (BT-549 breast): 6.82 µM
- TGI (BT-549 breast): 25.1 µM
- GI50 (T-47D breast): 1.06 µM
- TGI (T-47D breast): 13.9 µM
- GI50 (SR leukemia): 0.307 µM
- TGI (SR leukemia): 2.39 µM
- GI50 (ACHN renal): 0.755 µM
- TGI (ACHN renal): 7.05 µM
- GI50 (SK-MEL-28 melanoma): 2.56 µM
- TGI (SK-MEL-28 melanoma): 8.53 µM
- GI50 (RXF 393 renal): 1.35 µM
- TGI (RXF 393 renal): 5.66 µM
- GI50 (NCI-H522 lung): 0.442 µM
- TGI (NCI-H522 lung): 23 µM
- GI50 (PC-3 prostate): 1.28 µM
- TGI (PC-3 prostate): 18.9 µM
- GI50 (SF-539 CNS): 0.675 µM
- TGI (SF-539 CNS): 4.1 µM
- GI50 (NCI-H23 lung): 0.324 µM
- TGI (NCI-H23 lung): 3.76 µM
- GI50 (U251 CNS): 0.348 µM
- TGI (U251 CNS): 14.7 µM
- GI50 (NCI-H460 lung): 0.239 µM
- TGI (NCI-H460 lung): 1.39 µM
- GI50 (UACC-257 melanoma): 13.4 µM
- TGI (UACC-257 melanoma): 27.7 µM
- GI50 (COLO 205 colon): 3.07 µM
- TGI (COLO 205 colon): 19.6 µM
- GI50 (EKVX NSCLC): 5.26 µM
- TGI (EKVX NSCLC): 20 µM
- GI50 (SNB-19 CNS): 1.69 µM
- TGI (SNB-19 CNS): 17.5 µM
- GI50 (SF-268 CNS): 0.85 µM
- TGI (SF-268 CNS): 16.8 µM
- GI50 (NCI/ADR-RES ovarian): 1.56 µM
- TGI (NCI/ADR-RES ovarian): 4.14 µM
- GI50 (A549 NSCLC): 1.22 µM
- TGI (A549 NSCLC): 18.4 µM
- GI50 (HT29 colon): 0.706 µM
- TGI (HT29 colon): 16.1 µM
- GI50 (MDA-MB-435): 1.38 µM
- TGI (MDA-MB-435): 2.89 µM
- GI50 (OVCAR-3 ovarian): 11.9 µM
- TGI (OVCAR-3 ovarian): 24.7 µM
- GI50 (UO-31 renal): 3.09 µM
- TGI (UO-31 renal): 16.3 µM
- GI50 (SW-620 colon): 0.631 µM
- TGI (SW-620 colon): 20.1 µM
- GI50 (M14 melanoma): 1.97 µM
- TGI (M14 melanoma): 12.3 µM
- GI50 (CCRF-CEM leukemia): 0.0351 µM
- TGI (CCRF-CEM leukemia): 1.23 µM
- GI50 (SNB-75 CNS): 0.495 µM
- TGI (SNB-75 CNS): 9.41 µM
